# Assay results as given in paper PMC11800159, “Insertion of a Divergent GAF-like Domain Defines a Novel Family of YcgR Homologues That Bind c-di-GMP in Leptospirales” (ACS Omega, 2025).
# Target: T1, YcgRLIC_11920
# T1 construct: gene LIC_11920; full-length protein, N-terminal 6x histidine tag
# Experiment: ITC ([…] °C; […] at […] °C), […] c-di-GMP:protein stoichiometry
# Type: binding
compound,measurement,value
Nc1nc2c(ncn2[C@@H]2O[C@@H]3COP(=O)(O)O[C@H]4[C@@H](O)[C@H](n5cnc6c(=O)[nH]c(N)nc65)O[C@@H]4COP(=O)(O)O[C@H]3[C@H]2O)c(=O)[nH]1 [c-di-GMP],Kd,60 nM
